The species named for the test is Danio rerio. Description: Neuroprotective activity in 3 days postfertilized zebrafish larvae assessed as reduction of all-trans retinoic acid-induced apoptosis at 1 uM after 24 hrs by fluorescence microscopy. In kind it is functional. Details: scale not given: the % may be the effect or the level left.

With `COc1cc(-c2cccc(C)n2)nc(/C=N/O)c1SC`, the Activity was 40%.
In the case of `COc1cc(-c2cc(C)ccn2)nc(/C=N/O)c1SC`, the Activity is given as 70%.
As for `O=C(O)CCCCC1CCSS1` (stereo not drawn) [LIPOIC ACID, ALPHA], the Activity came to 61%.

(Values after ChEMBL document CHEMBL2429867, “Generation by mutasynthesis of potential neuroprotectant derivatives of the bipyridyl collismycin A” (2013).)
